Assay results taken from patent publication US20210254272A1, “TEXTILES HAVING ANTIMICROBIAL PROPERTIES” (Livinguard AG, priority 2015, published 2021).

Assay: Leaching test: 100 g fabric soaked in 10 liters stagnant distilled water, 3 days (72 hours)
Assay type: physicochemical
Procedure: (§1) The test procedure for leaching was as follows: 100 g (grams) of fabric as well as control fabrics were soaked in 10 liters of stagnant distilled water in a closed wide mouth jar. After 3 days (72 hours), the water samples were tested for leached substances as per standard analytical methods.
as §1, with “methods. A weight of 100 g fabric was chosen because in the preferred embodiment of the water filter as described further below, each filter comprises a strip of fabric with 210 g/m^2, 3 meters long and 0.16 meters wide, which corresponds to 100 g of fabric.” for “methods.”

Substance: polyglucosamine [chitosan]
- Leaching of active ingredients (in ppm) (0.2% each in mixture (o.w.f), exhaust 80° C., 60 min, curing 180° C., 2 min, unwashed): 9 ppm
- Leaching of active ingredients (in ppm) (0.5% each in mixture (o.w.f), exhaust 80° C., 60 min, curing 180° C., 2 min, unwashed): 12 ppm
- Leaching of active ingredients (in ppm) (1.0% each in mixture (o.w.f), exhaust 80° C., 60 min, curing 180° C., 2 min, unwashed): 16 ppm
- Leaching of active ingredients (in ppm) (exhaust 60° C., solution dosage 1% o.w.f, process time 60 min): 21 ppm
- Leaching of active ingredients (in ppm) (exhaust 60° C., solution dosage 1% o.w.f, process time 90 min): 13 ppm
- Leaching of active ingredients (in ppm) (exhaust 60° C., solution dosage 1% o.w.f, process time 120 min): 14 ppm
- Leaching of active ingredients (in ppm) (exhaust 60° C., solution dosage 1% o.w.f, process time 180 min): 12 ppm
- Leaching of active ingredients (in ppm) (exhaust 60° C., solution dosage 1% o.w.f, process time 240 min): 13 ppm
- Leaching of active ingredients (in ppm) (exhaust 80° C., 1% o.w.f, 60 min, curing 170° C., curing dwell time 0.5 min): 28 ppm
- Leaching of active ingredients (in ppm) (exhaust 80° C., 1% o.w.f, 60 min, curing 170° C., curing dwell time 1.0 min): 26 ppm
- Leaching of active ingredients (in ppm) (exhaust 80° C., 1% o.w.f, 60 min, curing 170° C., curing dwell time 1.5 min): 20 ppm
- Leaching of active ingredients (in ppm) (exhaust 80° C., 1% o.w.f, 60 min, curing 170° C., curing dwell time 2.0 min): 13 ppm
- Leaching of active ingredients (in ppm) (exhaust 80° C., 1% o.w.f, 60 min, curing 170° C., curing dwell time 2.5 min): 18 ppm
- Leaching of active ingredients (in ppm) (exhaust 80° C., 1% o.w.f, 60 min, curing 170° C., curing dwell time 3.0 min): 18 ppm
- Leaching of active ingredients (in ppm) (exhaust 80° C., 1% o.w.f, 60 min, curing 180° C., curing dwell time 0.5 min): 21 ppm
- Leaching of active ingredients (in ppm) (exhaust 80° C., 1% o.w.f, 60 min, curing 180° C., curing dwell time 1.0 min): 13 ppm
- Leaching of active ingredients (in ppm) (exhaust 80° C., 1% o.w.f, 60 min, curing 180° C., curing dwell time 1.5 min): 14 ppm
- Leaching of active ingredients (in ppm) (exhaust 80° C., 1% o.w.f, 60 min, curing 180° C., curing dwell time 2.0 min): 3 ppm
- Leaching of active ingredients (in ppm) (exhaust 80° C., 1% o.w.f, 60 min, curing 180° C., curing dwell time 2.5 min): 12 ppm
- Leaching of active ingredients (in ppm) (exhaust 80° C., 1% o.w.f, 60 min, curing 180° C., curing dwell time 3.0 min): 12 ppm
- Leaching of active ingredients (in ppm) (exhaust 80° C., 1% o.w.f, 60 min, curing dwell time at 190° C. (title): 0.5 min): 20 ppm
- Leaching of active ingredients (in ppm) (exhaust 80° C., 1% o.w.f, 60 min, curing dwell time at 190° C. (title): 1.0 min): 13 ppm
- Leaching of active ingredients (in ppm) (exhaust 80° C., 1% o.w.f, 60 min, curing dwell time at 190° C. (title): 1.5 min): 12 ppm
- Leaching of active ingredients (in ppm) (exhaust 80° C., 1% o.w.f, 60 min, curing dwell time at 190° C. (title): 2.0 min): 11 ppm
- Leaching of active ingredients (in ppm) (exhaust 80° C., 1% o.w.f, 60 min, curing dwell time at 190° C. (title): 2.5 min): 25 ppm
- Leaching of active ingredients (in ppm) (exhaust 80° C., 1% o.w.f, 60 min, curing dwell time at 190° C. (title): 3.0 min): 35 ppm
- Leaching of active ingredients (in ppm) (exhaust 80° C., 60 min, dosage 1% o.w.f (test up to 5% o.w.f)): 2 ppm
- Leaching of active ingredients (in ppm) (exhaust 80° C., 60 min, dosage 2% o.w.f): 17 ppm
- Leaching of active ingredients (in ppm) (exhaust 80° C., 60 min, dosage 3% o.w.f): 41 ppm
- Leaching of active ingredients (in ppm) (exhaust 80° C., 60 min, dosage 4% o.w.f): 42 ppm
- Leaching of active ingredients (in ppm) (exhaust 80° C., 60 min, dosage 5% o.w.f): 72 ppm
- Leaching of active ingredients (in ppm) (exhaust 80 ° C., solution dosage 1% o.w.f, process time 10 min): 37 ppm
- Leaching of active ingredients (in ppm) (exhaust 80 ° C., solution dosage 1% o.w.f, process time 20 min): 25 ppm
- Leaching of active ingredients (in ppm) (exhaust 80 ° C., solution dosage 1% o.w.f, process time 30 min): 21 ppm
- Leaching of active ingredients (in ppm) (exhaust 80 ° C., solution dosage 1% o.w.f, process time 40 min): 16 ppm
- Leaching of active ingredients (in ppm) (exhaust 80 ° C., solution dosage 1% o.w.f, process time 50 min): 12 ppm
- Leaching of active ingredients (in ppm) (exhaust 80 ° C., solution dosage 1% o.w.f, process time 55 min): 5 ppm
- Leaching of active ingredients (in ppm) (exhaust 80 ° C., solution dosage 1% o.w.f, process time 60 min): 3 ppm
- Leaching of active ingredients (in ppm) (exhaust 80 ° C., solution dosage 1% o.w.f, process time 70 min): 2 ppm
- Leaching of active ingredients (in ppm) (exhaust 80 ° C., solution dosage 1% o.w.f, process time 80 min): 5 ppm
- Leaching of active ingredients (in ppm) (exhaust 80 ° C., solution dosage 1% o.w.f, process time 90 min): 8 ppm
- limit on the quantity of the agent that can be adhered to the textile in a non-leaching or substantially non-leaching manner (from Experimental examples I.1 and I.4): about 0.2 % o.w.f.
- Leaching of active ingredient (in ppm) (solution dosage 0.10% o.w.f, exhaust temperature 60° C., process time 60 min): 0 ppm
- Leaching of active ingredient (in ppm) (solution dosage 0.10% o.w.f, exhaust temperature 65° C., process time 60 min): 0 ppm
- Leaching of active ingredient (in ppm) (solution dosage 0.10% o.w.f, exhaust temperature 70° C., process time 60 min): 0 ppm
- Leaching of active ingredient (in ppm) (solution dosage 0.10% o.w.f, exhaust temperature 75° C., process time 60 min): 0 ppm
- Leaching of active ingredient (in ppm) (solution dosage 0.10% o.w.f, exhaust temperature 80° C., process time 60 min): 0 ppm
- Leaching of active ingredient (in ppm) (solution dosage 0.10% o.w.f, exhaust temperature 85° C., process time 60 min): 1 ppm
- Leaching of active ingredient (in ppm) (solution dosage 0.10% o.w.f, exhaust temperature 90° C., process time 60 min): 2 ppm
- Leaching of active ingredient (in ppm) (solution dosage 0.10% o.w.f, exhaust temperature 95° C., process time 60 min): 2 ppm
- Leaching of active ingredient (in ppm) (solution dosage 0.20% o.w.f, exhaust temperature 60° C., process time 60 min): 0 ppm
- Leaching of active ingredient (in ppm) (solution dosage 0.20% o.w.f, exhaust temperature 65° C., process time 60 min): 0 ppm
- Leaching of active ingredient (in ppm) (solution dosage 0.20% o.w.f, exhaust temperature 70° C., process time 60 min): 0 ppm
- Leaching of active ingredient (in ppm) (solution dosage 0.20% o.w.f, exhaust temperature 75° C., process time 60 min): 0 ppm
- Leaching of active ingredient (in ppm) (solution dosage 0.20% o.w.f, exhaust temperature 80° C., process time 60 min): 0 ppm
- Leaching of active ingredient (in ppm) (solution dosage 0.20% o.w.f, exhaust temperature 85° C., process time 60 min): 2 ppm
- Leaching of active ingredient (in ppm) (solution dosage 0.20% o.w.f, exhaust temperature 90° C., process time 60 min): 3 ppm
- Leaching of active ingredient (in ppm) (solution dosage 0.20% o.w.f, exhaust temperature 95° C., process time 60 min): 4 ppm
- Leaching of active ingredient (in ppm) (solution dosage 0.50% o.w.f, exhaust temperature 60° C., process time 60 min): 1 ppm
- Leaching of active ingredient (in ppm) (solution dosage 0.50% o.w.f, exhaust temperature 65° C., process time 60 min): 1 ppm
- Leaching of active ingredient (in ppm) (solution dosage 0.50% o.w.f, exhaust temperature 70° C., process time 60 min): 1 ppm
- Leaching of active ingredient (in ppm) (solution dosage 0.50% o.w.f, exhaust temperature 75° C., process time 60 min): 1 ppm
- Leaching of active ingredient (in ppm) (solution dosage 0.50% o.w.f, exhaust temperature 80° C., process time 60 min): 1 ppm
- Leaching of active ingredient (in ppm) (solution dosage 0.50% o.w.f, exhaust temperature 85° C., process time 60 min): 4 ppm
- Leaching of active ingredient (in ppm) (solution dosage 0.50% o.w.f, exhaust temperature 90° C., process time 60 min): 5 ppm
- Leaching of active ingredient (in ppm) (solution dosage 0.50% o.w.f, exhaust temperature 95° C., process time 60 min): 7 ppm
- Leaching of active ingredient (in ppm) (solution dosage 0.80% o.w.f, exhaust temperature 60° C., process time 60 min): 2 ppm
- Leaching of active ingredient (in ppm) (solution dosage 0.80% o.w.f, exhaust temperature 65° C., process time 60 min): 2 ppm
- Leaching of active ingredient (in ppm) (solution dosage 0.80% o.w.f, exhaust temperature 70° C., process time 60 min): 2 ppm
- Leaching of active ingredient (in ppm) (solution dosage 0.80% o.w.f, exhaust temperature 75° C., process time 60 min): 3 ppm
- Leaching of active ingredient (in ppm) (solution dosage 0.80% o.w.f, exhaust temperature 80° C., process time 60 min): 1 ppm
- Leaching of active ingredient (in ppm) (solution dosage 0.80% o.w.f, exhaust temperature 85° C., process time 60 min): 7 ppm
- Leaching of active ingredient (in ppm) (solution dosage 0.80% o.w.f, exhaust temperature 90° C., process time 60 min): 8 ppm
- Leaching of active ingredient (in ppm) (solution dosage 0.80% o.w.f, exhaust temperature 95° C., process time 60 min): 9 ppm
- Leaching of active ingredient (in ppm) (solution dosage 1.00% o.w.f, exhaust temperature 60° C., process time 60 min): 6 ppm
- Leaching of active ingredient (in ppm) (solution dosage 1.00% o.w.f, exhaust temperature 65° C., process time 60 min): 6 ppm
- Leaching of active ingredient (in ppm) (solution dosage 1.00% o.w.f, exhaust temperature 70° C., process time 60 min): 4 ppm
- Leaching of active ingredient (in ppm) (solution dosage 1.00% o.w.f, exhaust temperature 75° C., process time 60 min): 3 ppm
- Leaching of active ingredient (in ppm) (solution dosage 1.00% o.w.f, exhaust temperature 80° C., process time 60 min): 1.5 ppm
- Leaching of active ingredient (in ppm) (solution dosage 1.00% o.w.f, exhaust temperature 85° C., process time 60 min): 9 ppm
- Leaching of active ingredient (in ppm) (solution dosage 1.00% o.w.f, exhaust temperature 90° C., process time 60 min): 11 ppm
- Leaching of active ingredient (in ppm) (solution dosage 1.00% o.w.f, exhaust temperature 95° C., process time 60 min): 12 ppm
